Source: patent US20250136576A1, “Heterocyclic Compounds and Uses Thereof” (ACEA Therapeutics, Inc., priority 2021, published 2025)
pIC50: −log10 of the molar value.

System: KM12-luc cells
Experiment: Cell proliferation and growth inhibition assay (CCK-8) in KM12-luc
Type: cell-based
Settings: KM12-Luc, 72 h, KM12-luc cells, treated with test compounds for 72 hrs, CCK-8 viability; read-out: NTRK IC50 in KM12-luc
Summary of the method: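 IC50 values were fitted by sigmoidal dose-response non-linear regression of CCK-8 OD450 absorbance after 1-4 hrs with reagent. Culture media were IMDM for MV-4-11, RPMI 1640 for H1975 and DMEM for KM12-luc, each with 10% FBS at 37 °C, 5% CO2.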

| Structure (SMILES) | pIC50 |
| --- | --- |
| COc1cnc(-n2cc(-c3nc(Nc4ccc(N(C)CCN(C)C)c(NC(C)=O)c4)ncc3OC)c3ccccc32)nc1-c1c[nH]c2ccccc12 [Compound 272b, N-(5-(4-(1-(4-(1H-indol-3-yl)-5-methoxypyrimidin-2-yl)-1H-indol-3-yl)-5-methoxypyrimidin-2-ylamino)-2-((2-(dimethylamino)ethyl)(methyl)amino)phenyl)acetamide] | 5.69 |
| CNc1cc(Nc2ncc(OC)c(-c3c[nH]c4ccccc34)n2)ccc1N(C)CCN(C)C [Compound 273a, N^4-(4-(1H-indol-3-yl)-5-methoxypyrimidin-2-yl)-N1-(2-(dimethylamino)ethyl)-N^1,N^2-dimethylbenzene-1,2,4-triamine] | 6.90 |
| CNc1cc(Nc2ncc(OC)c(-c3cn(-c4ncc(OC)c(-c5c[nH]c6ccccc56)n4)c4ccccc34)n2)ccc1N(C)CCN(C)C [Compound 273b, N^4-(4-(1-(4-(1H-indol-3-yl)-5-methoxypyrimidin-2-yl)-1H-indol-3-yl)-5-methoxypyrimidin-2-yl)-N^1-(2-(dimethylamino)ethyl)-N^1,N^2-dimethylbenzene-1,2,4-triamine] | 5.48 |
| COc1cnc(Nc2ccc(N(C)CCN(C)C)c(NC(C)=O)c2)nc1-c1cn(C)c2ccccc12 [Compound 274, N-(2-((2-(dimethylamino)ethyl)(methyl)amino)-5-(5-methoxy-4-(1-methyl-1H-indol-3-yl)pyrimidin-2-ylamino)phenyl)acetamide] | 6.89 |
| CNc1cc(Nc2ncc(OC)c(-c3cn(C)c4ccccc34)n2)ccc1N(C)CCN(C)C [Compound 275, N^1-(2-(dimethylamino)ethyl)-N^4-(5-methoxy-4-(1-methyl-1H-indol-3-yl)pyrimidin-2-yl)-N^1,N^2-dimethylbenzene-1,2,4-triamine] | 6.22 |
| COc1cnc(Nc2ccc(N(C)CCN(C)C)c(NCC(F)(F)F)c2)nc1-c1cn(C)c2ccccc12 [Compound 276, N^1-(2-(dimethylamino)ethyl)-N^4-(5-methoxy-4-(1-methyl-1H-indol-3-yl)pyrimidin-2-yl)-N^1-methyl-N^2-(2,2,2-trifluoroethyl)benzene-1,2,4-triamine] | 6.17 |
| COc1cnc(Nc2ccc(N(C)CCN(C)C)c(NC(C)=O)c2)nc1-c1cn(C)c2cccc(F)c12 [Compound 277, N-(2-((2-(dimethylamino)ethyl)(methyl)amino)-5-((4-(4-fluoro-1-methyl-1H-indol-3-yl)-5-methoxypyrimidin-2-yl)amino)phenyl)acetamide] | 6.43 |
| COc1cnc(Nc2ccc(N(CCN(C)C)C(C)=O)c(NC(C)=O)c2)nc1-c1c[nH]c2c(F)cccc12 [Compound 278, N-(2-acetamido-4-((4-(7-fluoro-1H-indol-3-yl)-5-methoxypyrimidin-2-yl)amino)phenyl)-N-(2-(dimethylamino)ethyl)acetamide] | 7.77 |
| COc1cnc(Nc2ccc(OCCN(C)C)c(NC(C)=O)c2)nc1-c1c[nH]c2c(F)cccc12 [Compound 279, N-(2-(2-(dimethylamino)ethoxy)-5-((4-(7-fluoro-1H-indol-3-yl)-5-methoxypyrimidin-2-yl)amino)phenyl)acetamide] | 7.28 |
| COc1cnc(Nc2ccc(OCCN(C)C)c(N)c2)nc1-c1cn(C)c2c(F)cccc12 [Compound 283, 4-(2-(dimethylamino)ethoxy)-N^1-(4-(7-fluoro-1-methyl-1H-indol-3-yl)-5-methoxypyrimidin-2-yl)benzene-1,3-diamine] | 7.06 |
| COc1cnc(Nc2ccc(OCCN(C)C)c(NC(C)=O)c2)nc1-c1cn(C)c2c(C)cccc12 [Compound 285, N-(5-((4-(1,7-dimethyl-1H-indol-3-yl)-5-methoxypyrimidin-2-yl)amino)-2-(2-(dimethylamino)ethoxy)phenyl)acetamide] | 7.00 |
| COc1cnc(Nc2ccc(N(CCN(C)C)C(C)=O)c(NC(C)=O)c2)nc1-c1c[nH]c2c(OC)cccc12 [Compound 286, N-(2-acetamido-4-((5-methoxy-4-(7-methoxy-1H-indol-3-yl)pyrimidin-2-yl)amino)phenyl)-N-(2-(dimethylamino)ethyl)acetamide] | 7.84 |
| COc1cnc(Nc2ccc(OCCN(C)C)c(NC(C)=O)c2)nc1-c1c[nH]c2c(OC)cccc12 [Compound 287, N-(2-(2-(dimethylamino)ethoxy)-5-((5-methoxy-4-(7-methoxy-1H-indol-3-yl)pyrimidin-2-yl)amino)phenyl)acetamide] | 7.66 |
| COc1cnc(Nc2ccc(N(C)CCN(C)C)c(NC(C)=O)c2)nc1-c1cn(C)nc1C [Compound 289, N-(5-((4-(1,3-dimethyl-1H-pyrazol-4-yl)-5-methoxypyrimidin-2-yl)amino)-2-((2-(dimethylamino)ethyl)(methyl)amino)phenyl)acetamide] | < 5.00 |
| CNc1cc(Nc2ncc(OC)c(-c3cn(C)nc3C)n2)ccc1N(C)CCN(C)C [Compound 290, N^4-(4-(1,3-dimethyl-1H-pyrazol-4-yl)-5-methoxypyrimidin-2-yl)-N1-(2-(dimethylamino)ethyl)-N^1,N^2-dimethylbenzene-1,2,4-triamine] | < 5.00 |
| COc1nc(Nc2ccc(N(C)CCN(C)C)c(NC(C)=O)c2)nc(-c2cn(C)c3ccccc23)c1OC [Compound 291a, N-(5-((4,5-dimethoxy-6-(1-methyl-1H-indol-3-yl)pyrimidin-2-yl)amino)-2-((2-(dimethylamino)ethyl) (methyl)amino)phenyl)acetamide] | 5.06 |
| COc1nc(Nc2cc(F)c(N(C)CCN(C)C)c(NC(C)=O)c2)nc(-c2cn(C)c3ccccc23)c1OC [Compound 291b, N-(5-((4,5-dimethoxy-6-(1-methyl-1H-indol-3-yl)pyrimidin-2-yl)amino)-2-((2-(dimethylamino)ethyl)(methyl)amino)-3-fluorophenyl)acetamide] | 5.85 |
| CCN(CCN(C)C)c1ccc(Nc2nc(OC)c(OC)c(-c3cn(C)c4ccccc34)n2)cc1NC(C)=O [Compound 291c, N-(5-((4,5-dimethoxy-6-(1-methyl-1H-indol-3-yl)pyrimidin-2-yl)amino)-2-((2-(dimethylamino)ethyl) (ethyl)amino)phenyl) acetamide] | 5.69 |
| CCN(CCN(C)C)c1c(F)cc(Nc2nc(OC)c(OC)c(-c3cn(C)c4ccccc34)n2)cc1NC(C)=O [Compound 291d, N-(5-((4,5-dimethoxy-6-(1-methyl-1H-indol-3-yl)pyrimidin-2-yl)amino)-2-((2-(dimethylamino)ethyl) (ethyl)amino)-3-fluorophenyl)acetamide] | 5.49 |
| COc1c(N)nc(Nc2ccc(N(C)CCN(C)C)c(N)c2)nc1-c1cn(C)c2ccccc12 [Compound 294, N^4-(4-amino-5-methoxy-6-(1-methyl-1H-indol-3-yl)pyrimidin-2-yl)-N^1-(2-(dimethylamino)ethyl)-N^1-methylbenzene-1,2,4-triamine] | 6.78 |
| COc1c(N)nc(Nc2ccc(N(C)CCN(C)C)c(NC(C)=O)c2)nc1-c1cn(C)c2ccccc12 [Compound 295, N-(5-((4-amino-5-methoxy-6-(1-methyl-1H-indol-3-yl)pyrimidin-2-yl)amino)-2-((2-(dimethylamino)ethyl) (methyl)amino)phenyl) acetamide] | 6.80 |
| CN(C)CCN(C)c1ccc(Nc2ncc(C(F)(F)F)c(-c3c[nH]c4ccccc34)n2)cc1N [Compound 297, N^4-(4-(1H-indol-3-yl)-5-(trifluoromethyl)pyrimidin-2-yl)-N^1-(2-(dimethylamino)ethyl)-N^1-methylbenzene-1,2,4-triamine] | 7.42 |
| CC(=O)Nc1cc(Nc2ncc(C(F)(F)F)c(-c3c[nH]c4ccccc34)n2)cc(F)c1N(C)CCN(C)C [Compound 299a, N-(5-((4-(1H-indol-3-yl)-5-(trifluoromethyl)pyrimidin-2-yl)amino)-2-((2-(dimethylamino)ethyl)(methyl)amino)-3-fluorophenyl)acetamide] | 7.32 |
| CC(=O)Nc1cc(Nc2nc(-c3c[nH]c4ccccc34)ncc2C(F)(F)F)cc(F)c1N(C)CCN(C)C [Compound 299b, N-(5-((2-(1H-indol-3-yl)-5-(trifluoromethyl)pyrimidin-4-yl)amino)-2-((2-(dimethylamino)ethyl)(methyl)amino)-3-fluorophenyl)acetamide] | 5.47 |
| CCN(CCN(C)C)c1ccc(Nc2ncc(C(F)(F)F)c(-c3c[nH]c4ccccc34)n2)cc1NC(C)=O [Compound 300a, N-(5-((4-(1H-indol-3-yl)-5-(trifluoromethyl)pyrimidin-2-yl)amino)-2-((2-(dimethylamino)ethyl)(ethyl)amino)phenyl)acetamide] | 7.55 |
| CCN(CCN(C)C)c1ccc(Nc2nc(-c3c[nH]c4ccccc34)ncc2C(F)(F)F)cc1NC(C)=O [Compound 300b, N-(5-((2-(1H-indol-3-yl)-5-(trifluoromethyl)pyrimidin-4-yl)amino)-2-((2-(dimethylamino)ethyl)(ethyl)amino)phenyl)acetamide] | 5.43 |
| CCN(CCN(C)C)c1ccc(Nc2ncc(C(F)(F)F)c(-c3c[nH]c4ccccc34)n2)cc1N [Compound 301, N^4-(4-(1H-indol-3-yl)-5-(trifluoromethyl)pyrimidin-2-yl)-N^1-(2-(dimethylamino)ethyl)-N-ethylbenzene-1,2,4-triamine] | 7.12 |
| CCC(=O)Nc1cc(Nc2ncc(C(F)(F)F)c(-c3c[nH]c4ccccc34)n2)ccc1N(CC)CCN(C)C [Compound 302, N-(5-((4-(1H-indol-3-yl)-5-(trifluoromethyl)pyrimidin-2-yl)amino)-2-((2-(dimethylamino)ethyl)(ethyl)amino)phenyl)propionamide] | 7.01 |
| Cc1nc2cc(Nc3ncc(C(F)(F)F)c(-c4c[nH]c5ccccc45)n3)ccc2n1CCN(C)C [Compound 303b, N^1—N-(4-(1H-indol-3-yl)-5-(trifluoromethyl)pyrimidin-2-yl)-1-(2-(dimethylamino)ethyl)-2-methyl-1H-benzo[d]imidazol-5-amine] | 7.19 |
